# Test system: Plasmodium berghei
# Experiment: Luciferase/luciferin-expressing antifolate-resistant parasites were used to infect a culture of HepG2 cells that were pre-incubated with compounds. Infected hepatocytes emit light due to the luciferase reaction. Assay results are presented as the percent inhibition of light emission compared to control. […]
# Format: functional
# Details: sporozoite; for IC50: read-out: LUCIFERASE INFECTION ASSAY - IC50; for IC90: read-out: LUCIFERASE INFECTION ASSAY - IC90
Structure (SMILES),IC50 [µM],IC90 [µM]
COC(=O)c1cc2c(N)c(C(=O)c3ccc(Cl)cc3)sc2nc1C(OC)OC,> 7.84,> 7.84
C=CCn1c(O)nnc1Sc1ncc([N+](=O)[O-])s1,> 11.6,> 11.6
Cn1c(S)nnc1-c1ccc(C(C)(C)C)cc1,> 13.3,> 13.3
COC(OC)c1ccc(C#N)c(SCC(=O)c2ccc(Cl)cc2)n1,> 9.1,> 9.1
Cc1nc(C(N)=NOC(=O)c2c(-c3ccccc3Cl)noc2C)cs1,> 8.76,> 8.76
O=S(=O)(c1ccc2ccccc2c1)N1CCN(c2ncc(C(F)(F)F)cc2Cl)CC1,> 7.24,> 7.24
CC(C)c1ccc(NC(=O)CSc2nccc(-c3csc(COc4ccccc4Cl)n3)n2)cc1,> 6.46,> 6.46
Cc1onc(-c2c(Cl)cccc2Cl)c1CO/N=C(\C#N)c1c(Cl)cccc1Cl,> 7.25,> 7.25
CCOC(=O)c1c(S(N)(=O)=O)c(C)n(-c2ccccc2)c1C,> 10.2,> 10.2
Cc1nc(SCc2ccc(C(F)(F)F)cc2)n(C)c(=O)c1Oc1ccc(F)cc1,> 7.78,> 7.78
Cn1c(Sc2cnc(SCc3ccc(Cl)cc3)nc2-c2ccccc2)nnc1C(F)(F)F,> 6.68,> 6.68
Cc1onc(-c2c(Cl)cccc2Cl)c1NC(=O)Nc1ccc(Cl)cc1,0.334,2.89
CC(C)c1ccc(-n2c(SCc3ccc(Cl)cc3)nnc2-c2ccc(C(C)(C)C)cc2)cc1,> 6.93,> 6.93
CN(CCOC(=O)Nc1cc(Cl)cc(Cl)c1)c1ncc(C(F)(F)F)cc1Cl,> 7.46,> 7.46
CCn1nc(C)cc1-c1nnc(SCc2ccccc2)n1-c1cccc(C(F)(F)F)c1,> 7.44,> 7.44
COc1ccc(OCc2nc(-c3ccc4c(c3)C(C)(C)CCC4(C)C)cs2)cc1,> 8.1,> 8.1
O=[N+]([O-])c1cnc(Sc2nnc(-c3ccccc3)[nH]2)s1,> 10.8,> 10.8
CCCCCCCCCCCc1nnc(SCc2ccc(C)cc2)n1-c1ccccc1C(F)(F)F,> 6.55,> 6.55
COC(=O)c1c(C)nn(C(=O)c2ccc(Cl)cc2)c1-c1snnc1C,> 8.76,> 8.76
Cc1oc(-c2ccc(Cl)cc2)cc1C(=O)Nc1cccc(C(F)(F)F)c1,> 8.69,> 8.69

Structure (SMILES),IC50 [µM],IC90 [µM]
Cc1noc(-c2ccc(Cl)cc2)c1C(=O)ONC(=N)c1ccc(C(F)(F)F)cc1,> 7.79,> 7.79
O=C(Nc1cccc(Cl)c1)n1nccc1-c1cc(-c2ccccc2)no1,> 9.05,> 9.05
CC(C)(C)c1ccc(C(=O)NNC(=S)Nc2cccc(C(F)(F)F)c2)cc1,7.4,> 8.34
Cc1noc(-c2ccc(C(F)(F)F)cc2)c1NC(=O)Nc1cc(Cl)cc(Cl)c1,0.395,1.05
Cn1ccnc1Sc1cnc(SCC(=O)c2ccc(Cl)cc2)nc1-c1ccccc1,> 7.28,> 7.28
CCn1nc(C)c([N+](=O)[O-])c1C(=O)Sc1cccc(Br)c1,> 8.91,> 8.91
FC(F)(F)c1csc(Nc2ccc(Cl)c(Cl)c2)n1,10.4,> 10.5
N=C(Cc1ccc([N+](=O)[O-])cc1)NOC(=O)c1cccs1,> 10.8,> 10.8
Cc1cc(C(=O)N/N=C/C(C)(C)C)nn1-c1ccc(C(C)C)cc1,> 10.1,> 10.1
CCOC(=O)Cc1nn(Cc2nc(-c3ccc(C(F)(F)F)cc3)cs2)c(=O)c2ccccc12,> 6.97,> 6.97
Cc1ccc(CSc2nc(C)c(Oc3ccc(F)cc3)c(=O)n2C)cc1,> 8.91,> 8.91
Cc1cc(C)c(CSCCNC2=CC(=O)CC(c3ccc(Cl)cc3)C2)c(C)c1 (stereo not given),> 7.97,> 7.97
C/C(=N\OC(=O)Nc1ccccc1)c1sc2nc(C(F)(F)F)nn2c1C,> 8.61,> 8.61
CC(C)(C)c1cc(C(=O)NNC(=O)Nc2cccc(C(F)(F)F)c2)n(Cc2ccccc2)n1,> 7.18,> 7.18
C/C(=N\NC(=S)NC(C)(C)C)c1ccc(OCc2ncc(C(F)(F)F)cc2Cl)cc1,0.801,0.938
CCOC(=O)c1c(S(=O)(=O)Nc2ccc(Cl)cc2)c(-c2ccccc2)n(-c2ccccc2)c1C,4.84,> 6.67
CCCCCc1ccc(-c2nnc(SCC(C)=O)[nH]2)cc1,> 10.9,> 10.9
Cc1nnsc1-c1onc(C)c1C(=O)NC(=O)Nc1ccccc1,4.69,> 9.61
FC(F)(F)c1cc(Nc2nc(-c3cc(-c4ccc(Cl)cc4Cl)no3)cs2)cc(C(F)(F)F)c1,> 6.29,> 6.29
CC(C)(C)c1ccc(-c2nnc(SCc3c(Cl)cccc3Cl)n2Cc2ccco2)cc1,3.43,> 6.99

Structure (SMILES),IC50 [µM],IC90 [µM]
O=C(NNC(=S)Nc1cccc(C(F)(F)F)c1)c1ccc(OC(F)(F)F)cc1,> 7.8,> 7.8
O=C(Nc1cccc(Cl)c1)Nc1ccccc1SCc1ncc(C(F)(F)F)cc1Cl,> 6.99,> 6.99
COC(=O)c1cc(C#N)c(SCC(=O)c2ccc(Cl)cc2)nc1C(OC)OC,> 7.84,> 7.84
O=C(Nc1ccc(Oc2cccc3cccnc23)cc1)c1cccs1,> 9.53,> 9.53
O=C(Cc1cc(Br)sc1Br)Nc1cccc(C(F)(F)F)c1,> 7.45,> 7.45
C#CCSc1nnc(-c2ccc(C(C)(C)C)cc2)n1-c1cccc(C(F)(F)F)c1,> 7.94,> 7.94
O=C(Nc1ccc(Cl)cc1)n1ncc(Sc2ccc(Cl)cc2)c1-c1ccc(Cl)cc1,> 6.95,> 6.95
Cc1oc(C(C)(C)C)cc1C(=O)Nc1ccc([N+](=O)[O-])cc1,> 10.9,> 10.9
CCN(CC)c1ccc(NC(=O)c2c(-c3c(Cl)cccc3Cl)noc2C)c(N(CC)CC)n1,> 6.73,> 6.73
CC(C)(C)c1cc(C(=O)NNC(=O)c2ccc(C(F)(F)F)cc2)n(Cc2ccccc2)n1,> 7.42,> 7.42
FC(F)Oc1ccc(-c2csc(COc3ccc(C4SCCS4)cc3)n2)cc1,3.7,> 7.54
CCOC(=O)c1c(S(=O)(=O)Nc2cccc([N+](=O)[O-])c2)c(-c2ccccc2)n(-c2ccccc2)c1C,> 6.53,> 6.53
CC(C)c1ccc(NC(=O)Nc2csc(Cc3c(Cl)cccc3Cl)n2)cc1,> 7.85,> 7.85
Cc1ccc(NC(=O)c2csc(Cc3c(Cl)cccc3Cl)n2)cc1,> 8.75,> 8.75
CC(C)c1ccc(-n2c(SCc3ccc([N+](=O)[O-])cc3)nnc2-c2ccc(C(C)(C)C)cc2)cc1,> 6.78,> 6.78
Nc1cc(C(F)(F)F)cnc1Nc1ccc(Cl)cc1,> 11.5,> 11.5
CCOC(=O)c1c(S(=O)(=O)Nc2ccccc2Cl)c(-c2ccccc2)n(-c2ccccc2)c1C,> 6.67,> 6.67
CC(C)(C)c1ccc(C(=O)Nc2ccc(C(F)(F)F)cc2)s1,0.561,4.36
CCOC(=O)c1nc(-c2ccc([N+](=O)[O-])o2)no1,> 13,> 13
Cc1onc(-c2c(F)cccc2Cl)c1C(=O)Nc1ccc(Sc2ccccc2)nc1Sc1ccccc1,0.182,2.15
